In patent US4819645A, “Dermal substance collection method” (priority 1987, dated 1989):
Like-named read-outs stand apart in the source and are kept apart here.

Columns and labels:
[1] = Rhesus monkeys, maximum percentage of administered dose collected, liquid bridge diameter 9 mm
[2] = Collection of cimetidine by DSCDs in a healthy volunteer; conditions: 5 mg/kg orally or intravenously, 24 hours, 25 mm liquid bridge, agarose gel with activated charcoal
[3] = type: in vivo, Rhesus monkey; conditions: 14C-parathion intravenously; activated charcoal gel DSCD, skin pre-treated with Azone
From the text: Extensive In vivo testing of the dermal substance collection device (DSCD) has been undertaken in rabbits (R, Rhesus monkeys (M) and humans (H). […]. Experimental conditions were varied in order to evaluate various binding reservoirs including activated charcoal dispersed in a saline/gel matrix, various DSCD embodiments which provide a liquid bridge including saline, immobilized by various gels such as agarose or polyvinyl alcohol as the gelling agent, various DSCD embodiments which provide persistent occlusive contact of the liquid bridge with the skin (single layer adhesive tape overlying the DSCD liquid bridge/binding reservoir complex vs multiple tape/foil layers enveloping a liquid bridge/binding reservoir complex vs multiple tape/foil layers enveloping a liquid bridge/binding reservoir complex which protrudes into the skin effecting positive pressure during emplacement), various preparatory procedures (shaving, clipping of hair, use of a chemical depilitant, cleansing of the skin with soap and isopropyl alcohol), and various skin penetration enhancing agents (Azone, DET, DMSO).
In a typical animal experiment, a Rhesus monkey is anesthetized with ketamine 10 mg/kg and the hair on the chest and abdomen is clipped prior to washing the underlying skin (with a mild soap or isopropyl alcohol). […]

[4] = Collection of THC by DSCDs after oral THC, RIA after toluene/ethanol extraction; conditions: cancer patient, oral 10 mg THC, up to 48 hours, lower legs, 1 cm gel
[5] = parent compound and metabolites

CCOP(=S)(OCC)Oc1ccc([N+](=O)[O-])cc1 [PARATHION, parathion]
EXTENT OF TRANSDERMAL MIGRATION [1, 5]: 0.7 % Dose × 10^4

Cn1c(=O)c2[nH]cnc2n(C)c1=O [THEOPHYLLINE, theophylline]
EXTENT OF TRANSDERMAL MIGRATION [1, 5]: 25 % Dose × 10^4

CN/C(=N/CCSCc1nc[nH]c1C)NC#N [CIMETIDINE, cimetidine]
amount of cimetidine collected from DSCDs [2]: 62 to 461 ng | EXTENT OF TRANSDERMAL MIGRATION ([1]; parent compound only): 8.3 % Dose × 10^4

CN1CCCC1c1cccnc1 (stereo not shown) [NICOTINE, nicotine]
EXTENT OF TRANSDERMAL MIGRATION [1, 5]: 2.5 % Dose × 10^4

CCOP(=S)(OCC)Oc1ccc([N+](=O)[O-])cc1 [14C-parathion]
transdermal collection (in words) [3]: particularly satisfactory transdermal collection

CCCCCc1cc(O)c2c(c1)OC(C)(C)[C@@H]1CCC(C)=C[C@@H]21 [TETRAHYDROCANNABINOL]
amount of THC collected from DSCDs ([4]; agarose gel without activated charcoal): 224 ± 22 pg | amount of THC collected from DSCDs ([4]; gel with activated charcoal): 601 ± 302 pg | EXTENT OF TRANSDERMAL MIGRATION ([1]; parent compound only): 0.1 % Dose × 10^4

inulin
EXTENT OF TRANSDERMAL MIGRATION [1, 5]: 0.5 % Dose × 10^4
